The source of these data is patent US6620828B2, “Thiazole compounds and pharmaceutical compositions for inhibiting protein kinases and methods for their use” (Agouron Pharmaceuticals, Inc., priority 1999, dated 2003).

The test system of the first assay is human umbilical vein endothelial cells (HUVEC). The assay can be described thus: HUVEC proliferation assay. The settings on record: Homo sapiens, HUVEC, Inhibition of HUVEC Proliferation; 50 nM; crude combinatorial urea library; read-out: Inhibition @ 50 nM. It is filed as cell-based. Put shortly: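 Exponentially growing HUVEC were serum-starved 24 h (F12K + 1% FBS), pre-treated 1 h with compound (0.1% DMSO final), then stimulated with 6 ng/ml VEGF. Proliferation was read 72 h later by MTT reduction (A595). IC50 came from seven 0.5-log concentrations in triplicate; screens gave % inhibition relative to VEGF-only and starved wells.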
Consider `COc1cccc(C(=O)Nc2cc(-c3noc(-c4sc(NC(=O)NCCNc5ccccc5)nc4N)n3)c(F)cc2F)c1`, for which the inhibition at 0.05 µM is 89%.
Same read-out and setting: in the case of `COc1cccc(C(=O)Nc2cc(-c3noc(-c4sc(NC(=O)NCC(C)O)nc4N)n3)c(F)cc2F)c1` (centres unmarked) it was 78%; in that of `COc1cccc(C(=O)Nc2cc(-c3noc(-c4sc(NC(=O)NCC5CCC=CO5)nc4N)n3)c(F)cc2F)c1` (centres unmarked), 93%.
Still for that read-out and setting: in the case of `COc1cccc(C(=O)Nc2cc(-c3noc(-c4sc(NC(=O)NCCC(C)C)nc4N)n3)c(F)cc2F)c1` it was 96%.
On the same count and under the same terms, in the case of `COc1cccc(C(=O)Nc2cc(-c3noc(-c4sc(NC(=O)NCCC5CCCN5C)nc4N)n3)c(F)cc2F)c1` (centres unmarked) it was 104%.
Consider `COc1cccc(C(=O)Nc2cc(-c3noc(-c4sc(NC(=O)NCCN5CCCCC5)nc4N)n3)c(F)cc2F)c1`, for which the inhibition at 0.05 µM worked out at 78%.
For `COc1cccc(C(=O)Nc2cc(-c3noc(-c4sc(NC(=O)NCc5ccccc5)nc4N)n3)c(F)cc2F)c1`, the inhibition at 0.05 µM amounted to 61%.
On the same count and under the same terms, in the case of `COc1cccc(C(=O)Nc2cc(-c3noc(-c4sc(NC(=O)NCCCN5CCCCC5C)nc4N)n3)c(F)cc2F)c1` (centres unmarked) it was 96%; in that of `COc1cccc(C(=O)Nc2cc(-c3noc(-c4sc(NC(=O)NC5CCN(Cc6ccccc6)CC5)nc4N)n3)c(F)cc2F)c1`, 82%.
On the same count and under the same terms, in the case of `COc1cccc(C(=O)Nc2cc(-c3noc(-c4sc(NC(=O)NCC(C)(C)CN(C)C)nc4N)n3)c(F)cc2F)c1` it was 77%.
The same measure, in the same setting: in the case of `COc1cccc(C(=O)Nc2cc(-c3noc(-c4sc(NC(=O)NCCC(=O)O)nc4N)n3)c(F)cc2F)c1` it was 56%.
`COCCNC(=O)Nc1nc(N)c(-c2nc(-c3cc(NC(=O)c4cccc(OC)c4)c(F)cc3F)no2)s1`: the inhibition at 0.05 µM was 53%.
Same read-out and setting: in the case of `COc1cccc(C(=O)Nc2cc(-c3noc(-c4sc(NC(=O)NCC(F)(F)F)nc4N)n3)c(F)cc2F)c1` it was 89%; in that of `COc1cccc(C(=O)Nc2cc(-c3noc(-c4sc(NC(=O)NCCCn5ccnc5)nc4N)n3)c(F)cc2F)c1`, 87%; in that of `COc1cccc(C(=O)Nc2cc(-c3noc(-c4sc(NC(=O)NCCc5ccc(S(N)(=O)=O)cc5)nc4N)n3)c(F)cc2F)c1`, 83%.
The same measure, in the same setting: in the case of `CCCCN(CC)CCNC(=O)Nc1nc(N)c(-c2nc(-c3cc(NC(=O)c4cccc(OC)c4)c(F)cc3F)no2)s1` it was 42%; in that of `COc1cccc(C(=O)Nc2cc(-c3noc(-c4sc(NC(=O)NCc5ccc(N(C)C)cc5)nc4N)n3)c(F)cc2F)c1`, 48%.
On the same count and under the same terms, in the case of `COc1cccc(C(=O)Nc2cc(-c3noc(-c4sc(NC(=O)NCP(=O)(O)O)nc4N)n3)c(F)cc2F)c1` it was 4%.
On to `COc1cccc(C(=O)Nc2cc(-c3noc(-c4sc(NC(=O)NC(CO)CO)nc4N)n3)c(F)cc2F)c1`, for which the inhibition at 0.05 µM amounted to 31%.
Still for that read-out and setting: in the case of `COc1cccc(C(=O)Nc2cc(-c3noc(-c4sc(NC(=O)NCc5ccc(N)cc5)nc4N)n3)c(F)cc2F)c1` it was 82%.
Same read-out and setting: in the case of `COc1cccc(C(=O)Nc2cc(-c3noc(-c4sc(NC(=O)N[C@@H](CO)C(N)=O)nc4N)n3)c(F)cc2F)c1` it was 59%; in that of `COc1cccc(C(=O)Nc2cc(-c3noc(-c4sc(NC(=O)NCCNC(C)=O)nc4N)n3)c(F)cc2F)c1`, 75%; in that of `COc1cccc(C(=O)Nc2cc(-c3noc(-c4sc(NC(=O)N[C@H](CO)Cc5c[nH]cn5)nc4N)n3)c(F)cc2F)c1`, 77%.
The same measure, in the same setting: in the case of `CCC(CO)NC(=O)Nc1nc(N)c(-c2nc(-c3cc(NC(=O)c4cccc(OC)c4)c(F)cc3F)no2)s1` (centres unmarked) it was 81%; in that of `COc1cccc(C(=O)Nc2cc(-c3noc(-c4sc(NC(=O)NCCCC(=O)O)nc4N)n3)c(F)cc2F)c1`, 96%.
Regarding `COc1cccc(C(=O)Nc2cc(-c3noc(-c4sc(NC(=O)NCCN5CCNCC5)nc4N)n3)c(F)cc2F)c1`, the inhibition at 0.05 µM was determined as 76%.
Still for that read-out and setting: in the case of `COc1cccc(C(=O)Nc2cc(-c3noc(-c4sc(NC(=O)NCCc5ccccn5)nc4N)n3)c(F)cc2F)c1` it was 78%; in that of `COc1cccc(C(=O)Nc2cc(-c3noc(-c4sc(NC(=O)NCCN5CCCC5)nc4N)n3)c(F)cc2F)c1`, 79%.
`COCC(C)NC(=O)Nc1nc(N)c(-c2nc(-c3cc(NC(=O)c4cccc(OC)c4)c(F)cc3F)no2)s1` (centres unmarked): the inhibition at 0.05 µM was determined as 80%.
On the same count and under the same terms, in the case of `COc1cccc(C(=O)Nc2cc(-c3noc(-c4sc(NC(=O)NCC(C)(O)CO)nc4N)n3)c(F)cc2F)c1` (centres unmarked) it was 45%.
On the same count and under the same terms, in the case of `COc1cccc(C(=O)Nc2cc(-c3noc(-c4sc(NC(=O)NC(C)CO)nc4N)n3)c(F)cc2F)c1` (centres unmarked) it was 77%.
Still for that read-out and setting: in the case of `COc1cccc(C(=O)Nc2cc(-c3noc(-c4sc(NC(=O)NCCN(C)C)nc4N)n3)c(F)cc2F)c1` it was 69%; in that of `COc1cccc(C(=O)Nc2cc(-c3noc(-c4sc(NC(=O)NCC(C)(C)N)nc4N)n3)c(F)cc2F)c1`, 14%.
Regarding `CCCCN(CCCC)CCCNC(=O)Nc1nc(N)c(-c2nc(-c3cc(NC(=O)c4cccc(OC)c4)c(F)cc3F)no2)s1`, the inhibition at 0.05 µM was 80%.

Staying with this assay, now noted: Homo sapiens, HUVEC, Table I screening results; 150 nM; crude combinatorial amide library.
`COc1cc(Nc2nc(N)c(-c3nc(-c4cccc(NC(=O)c5ccccc5CCc5ccccc5)c4)cs3)s2)cc(OC)c1OC`: the inhibition at 0.15 µM was -14%.
As to `COc1cc(Nc2nc(N)c(-c3nc(-c4cccc(NC(=O)c5cccc(C(=O)c6ccccc6)c5)c4)cs3)s2)cc(OC)c1OC`, the inhibition at 0.15 µM is -18%.
Still for that read-out and setting: in the case of `COc1cc(Nc2nc(N)c(-c3nc(-c4cccc(NC(=O)Cc5ccc(Cl)c(Cl)c5)c4)cs3)s2)cc(OC)c1OC` it was -5%; in that of `COc1cc(Nc2nc(N)c(-c3nc(-c4cccc(NC(=O)Cc5ccc(Cl)cc5Cl)c4)cs3)s2)cc(OC)c1OC`, -20%.
Still for that read-out and setting: in the case of `CCc1ccc(-c2ccc(C(=O)Nc3cccc(-c4csc(-c5sc(Nc6cc(OC)c(OC)c(OC)c6)nc5N)n4)c3)cc2)cc1` it was -7%; in that of `COc1cc(Nc2nc(N)c(-c3nc(-c4cccc(NC(=O)c5ccc6[nH]nnc6c5)c4)cs3)s2)cc(OC)c1OC`, -8%; in that of `COc1cc(Nc2nc(N)c(-c3nc(-c4cccc(NC(=O)c5ccncc5)c4)cs3)s2)cc(OC)c1OC`, 1%.
The same measure, in the same setting: in the case of `COc1cc(Nc2nc(N)c(-c3nc(-c4cccc(NC(=O)Cc5ccc(Cl)cc5)c4)cs3)s2)cc(OC)c1OC` it was -7%; in that of `COc1cc(Nc2nc(N)c(-c3nc(-c4cccc(NC(=O)c5ccc6[nH]cnc6c5)c4)cs3)s2)cc(OC)c1OC`, -30%; in that of `COc1cc(Nc2nc(N)c(-c3nc(-c4cccc(NC(=O)Cc5cccc(Cl)c5)c4)cs3)s2)cc(OC)c1OC`, 30%.
With `COc1cc(Nc2nc(N)c(-c3nc(-c4cccc(NC(=O)c5cc6cccc(OC)c6o5)c4)cs3)s2)cc(OC)c1OC`, the inhibition at 0.15 µM is 21%.
`COc1cc(Nc2nc(N)c(-c3nc(-c4cccc(NC(=O)c5cn(Cc6ccccc6)c6ccccc56)c4)cs3)s2)cc(OC)c1OC`: the inhibition at 0.15 µM is -11%.
Same read-out and setting: in the case of `CC/C=C/CC(=O)Nc1cccc(-c2csc(-c3sc(Nc4cc(OC)c(OC)c(OC)c4)nc3N)n2)c1` it was 19%; in that of `COc1cc(Nc2nc(N)c(-c3nc(-c4cccc(NC(=O)c5ccc6cc[nH]c6c5)c4)cs3)s2)cc(OC)c1OC`, 25%.
Still for that read-out and setting: in the case of `COc1cc(Nc2nc(N)c(-c3nc(-c4cccc(NC(=O)c5ccc6ncccc6c5)c4)cs3)s2)cc(OC)c1OC` it was 26%; in that of `COc1cc(Nc2nc(N)c(-c3nc(-c4cccc(NC(=O)CN5C(=O)CSC5=O)c4)cs3)s2)cc(OC)c1OC`, 17%; in that of `COc1cc(Nc2nc(N)c(-c3nc(-c4cccc(NC(=O)C5C=CCC=C5C)c4)cs3)s2)cc(OC)c1OC` (centres unmarked), 14%.
Still for that read-out and setting: in the case of `COc1ccc2c(c1)C(CC(=O)Nc1cccc(-c3csc(-c4sc(Nc5cc(OC)c(OC)c(OC)c5)nc4N)n3)c1)CC2=O` (centres unmarked) it was 0%; in that of `COc1ccc2[nH]c(C(=O)Nc3cccc(-c4csc(-c5sc(Nc6cc(OC)c(OC)c(OC)c6)nc5N)n4)c3)cc2c1`, 1%; in that of `COc1cc(Nc2nc(N)c(-c3nc(-c4cccc(NC(=O)c5ccc6ccccc6n5)c4)cs3)s2)cc(OC)c1OC`, -11%.
On to `COc1cc(Nc2nc(N)c(-c3nc(-c4cccc(NC(=O)c5ccc6c(c5)OCO6)c4)cs3)s2)cc(OC)c1OC`, for which the inhibition at 0.15 µM was 42%.
Still for that read-out and setting: in the case of `C#CCCCC(=O)Nc1cccc(-c2csc(-c3sc(Nc4cc(OC)c(OC)c(OC)c4)nc3N)n2)c1` it was -14%; in that of `COc1ccc2oc(C(=O)Nc3cccc(-c4csc(-c5sc(Nc6cc(OC)c(OC)c(OC)c6)nc5N)n4)c3)cc2c1`, 7%; in that of `COc1cc(Nc2nc(N)c(-c3nc(-c4cccc(NC(=O)C(C)c5ccccc5)c4)cs3)s2)cc(OC)c1OC` (centres unmarked), 3%.
Same read-out and setting: in the case of `COc1cc(Nc2nc(N)c(-c3nc(-c4cccc(NC(=O)C5=C(C)c6ccccc6C5)c4)cs3)s2)cc(OC)c1OC` it was 29%.
Same read-out and setting: in the case of `COc1cc(Nc2nc(N)c(-c3nc(-c4cccc(NC(=O)/C=C/c5cccnc5)c4)cs3)s2)cc(OC)c1OC` it was -13%.
On to `COc1cc(Nc2nc(N)c(-c3nc(-c4cccc(NC(=O)C5CCCCCC5)c4)cs3)s2)cc(OC)c1OC`, for which the inhibition at 0.15 µM is 13%.
On to `COc1cc(Nc2nc(N)c(-c3nc(-c4cccc(NC(=O)c5ccc(N(C)C)cc5)c4)cs3)s2)cc(OC)c1OC`, for which the inhibition at 0.15 µM turned out to be 0%.
As for `CCC(C)CC(=O)Nc1cccc(-c2csc(-c3sc(Nc4cc(OC)c(OC)c(OC)c4)nc3N)n2)c1` (centres unmarked), the inhibition at 0.15 µM was -3%.
In the case of `COc1cc(Nc2nc(N)c(-c3nc(-c4cccc(NC(=O)C(C)(C)C)c4)cs3)s2)cc(OC)c1OC`, the inhibition at 0.15 µM came out at 7%.
On the same count and under the same terms, in the case of `COc1cc(Nc2nc(N)c(-c3nc(-c4cccc(NC(=O)c5ccc(CCCl)cc5)c4)cs3)s2)cc(OC)c1OC` it was 59%.

As a reminder, the inhibition is the change of the read-out against control, counted positive when it falls.
